Measured values from EP0565593B1, “REDUCING PESTICIDAL INTERACTIONS IN CROPS” (priority 1990, dated 1992).
Where “and” joins values, the source holds several entries; their conditions need not be identical. Equal values may be shown once. Read-outs that look alike come from different tables or passages of the source.

Columns and labels:
[1] = tested on: Shattercane (SHCA); assay type: in vivo
[2] = tested on: Velvetleaf (VELE); assay type: in vivo, Abutilon theophrasti
[3] = tested on: Giant foxtail (GIFT); test: whole plant or invertebrate; assay type: in vivo; conditions: for inhibition at 140 g/ha: Setaria faberi, iv, 312 h
[4] = tested on: Giant foxtail (GIFT); test: Greenhouse test Procedure VII (same examples); assay type: in vivo; conditions: Antidote + Biocide No. 1 in furrow
Text: This procedure describes interaction among herbicide, biocide and antidote when the biocide and the antidote is applied to a soil furrow containing crop seed before emergence of the crop and the herbicide is applied after emergence of the crop and weeds. The soil and planting depth was described in Procedure IV. The containers for comparison, the biocide and antidote applications to soil furrows were described in Procedure VI. In this procedure, the seed beds of the first, second, third and fourth containers are covered by soil layers not treated with herbicide. The containers were then placed on a bench in a greenhouse and subirrigated as required for the duration of the test. The herbicide, dispersed or dissolved in water containing 0.25% v/v nonionic surfactant (X-77) was applied by a track sprayer (187 L/ha) to the emerged plants of the second, third and fourth containers about five days after planting. All treatments were run in duplicate. Plant response was observed according to Procedure IV. Variations in this procedure will be noted in the examples.
In these tests (according to Procedure VII) the safeners in solution with acetone were applied in furrow to the soil, followed by COUNTER 15G granules at 227 g/305 m (8 oz./1000'). Applications were made in alternate rows in two separate 13.7 cm x 27.7 cm pans containing Dupo silt loam. Pans were seeded 1.3 cm deep, placed on benches in a greenhouse and subirrigated. BEACON was formulated in water with 0.25% v/v X-77 surfactant and applied by track sprayer at a rate of 187 L/Ha (20 gal/A). Weed species in this test were giant foxtail, shattercane and velvetleaf. The herbicide was applied five (5) days after PPI initiation and observation of test result (shown in Table 47) made eight (8) days later.
In Table 47 COUNTER 15G is abbreviated as "C" and the antidotes as "A" in the column headings which indicate the "C + A" ratios used in the tests. Control and COUNTER treatments are average of four (4) replications and COUNTER + Antidote treatments, average of 2 reps.

[5] = tested on: cotton (COTT); test: Multi-crop greenhouse test, biocide, herbicide and safener applied to soil covers (Examples 65, 66; Tables 64, 65); assay type: in vivo; set-up: inhibition: dose or concentration left out as unconfirmed; conditions: for inhibition / inhibition at 18 g/ha / inhibition at 70 g/ha / inhibition at 280 g/ha: Gossypium hirsutum, soil; for inhibition at 18 g/ha: Herb. No. 1 0.018 Kg/Ha alone; for inhibition at 70 g/ha: Herb. No. 1 0.07 Kg/Ha alone; for inhibition at 280 g/ha: Herb. No. 1 0.28 Kg/Ha alone
Protocol: Tests according to this invention in various crops indicate widespread application of the invention. In Examples 62-66 below are described tests with a variety of herbicides contacted with COUNTER® 15G in the presence and absence of MON-7400 (Antidote No. 12); MON-13900 (No. 1); MON-4660 (No. 16) and flurazole (No. 16). Those tests were conducted according to Procedures IV or V described above and illustrated further in other foregoing examples. Plants used in all tests were, for crops (as abbreviated in parentheses); cotton (COTT); soybean (SOBE); CORN, grain sorghum (GRSO); wheat (WHEA) and RICE, and the weeds giant foxtail (GIFT) and velvetleaf (VELE). The data in the tables below represent averages of two replications.
In this test the crops and weeds were planted 1.3 cm deep in 13.7 cm X 27.7 cm pans containing Dupo silt loam soil. The test safeners were applied in acetone solution and COUNTER 15G as dry granules to soil cover layers and incorporated by shaking in a bag. Treated cover layers were placed on seeded pans which were transferred to greenhouse benches and subirrigated. Herbicide was applied POE six (6) days after PPI initiation and observations of plant injury made ten (10) days later; results are shown in Table 61. The herbicide used in this example was BEACON (No. 8).
In another test in the several crops and weeds used in this test series, the herbicidal component was MON-12000 (No. 1); the other components were the same. the procedure used in this test was the same as that described in Example 62, modified to use a light overhead irrigation (about 0.32 cm/day) during days 4-7 of the test.
In yet another test in this series, XRD-498 (Herbicide No. 21) was used as the herbicidal component in contact with COUNTER 15G in the presence of the above safeners. The various components of the system (biocide, herbicide and safener) were applied concurrently to soil covers of the seeded plants.

[6] = Antidote 4.48 + Biocide No. 1 8.96 Kg/Ha PPI, Herb. No. 8 0.07, 5 DAP, before herbicide application
[7] = Antidote 4.48 + Biocide No. 1 8.96 Kg/Ha PPI, Herb. No. 8 0.07 POE, 13 DAP
[8] = Antidote 4.48 + Biocide No. 1 8.96 Kg/Ha PPI, Herbicide No. 7 0.28 POE, 13 days after planting
[9] = Herb. […], 13 DAP, after herbicide application
[10] = Table 14: Herbicide No. 7 (ACCENT) 0.84 Kg/Ha POE + Biocide No. 2 8.96 Kg/Ha PPI + antidote 4.48 Kg/Ha PPI, 13 days after planting, 8 days after herbicide
[11] = […], 13 days after planting, 8 days after herbicide
[12] = […], observed 8 days later (Table 32)
[13] = […], observed 8 days later (Table 33)
[14] = […], observed 10 days after herbicide application
[15] = Herb. […], 5 DAP, before herbicide application
[16] = Herbicide No. 1 0.14 Kg/Ha POE, 8 days after POE
[17] = Herbicide No. 4 0.17 Kg/Ha POE, 8 days after POE
[18] = Herbicide No. 5 0.07 Kg/Ha POE, 8 days after POE
[19] = Herbicide No. 7 0.56 Kg/Ha POE, 8 days after POE
[20] = Herbicide No. 9 0.009 Kg/Ha POE
[21] = Herbicide No. 10 0.002 Kg/Ha POE, 8 days after POE
[22] = Herbicide No. 15 0.0044 Kg/Ha POE, 8 days after POE
[23] = Herbicide No. 16 0.01 Kg/Ha POE
[24] = Herbicide No. 18 0.0044 Kg/Ha POE
[25] = Herbicide No. 19 0.28 Kg/Ha POE
[26] = Herbicide No. 21 0.14 Kg/Ha POE
[27] = Herbicide No. 23 0.0006 Kg/Ha POE

COC(=O)COC(c1ccccc1)c1ccccc1 [compound 12]
% Inhibition 5 DAP SHCA [1, 6]: 0%
% Inhibition 13 DAP SHCA [1, 7]: 80%
% Inhibition SHCA [1, 8]: 75%
% Inhibition 13 DAP SHCA [1, 9]: 85%
% Inhibition SHCA [1, 10]: 75%
% Inhibition SHCA [1, 11]: 90%
% Inhibition SHCA [1, 12]: 80%
% Inhibition SHCA [1, 13]: 40%
% Inhibition SHCA [1, 14]: 60%
% Inhibition 5 DAP SHCA ([1]; in vivo): 15%
% Inhibition 13 DAP SHCA ([1]; in vivo): 75%
% Inhibition 5 DAP VELE [2, 6]: 25%
% Inhibition 13 DAP VELE [2, 7]: 90%
% Inhibition VELE [2, 8]: 65%
% Inhibition 5 DAP VELE [2, 15]: 0%
% Inhibition 13 DAP VELE [2, 9]: 90%
% Inhibition VELE [2, 10]: 70%
% Inhibition VELE [2, 11]: 75%
% Inhibition VELE [2, 12]: 85%
% Inhibition VELE [2, 13]: 75%
% Inhibition VELE [2, 14]: 90%
% Inhibition 5 DAP VELE ([2]; in vivo): 20%
% Inhibition 13 DAP VELE ([2]; in vivo): 85%
% Inhibition VELE ([2]; in vivo): 70% and 65% and 85% and 75% and 90% and 80%
% Inhibition GIFT ([3]; […], PPI, 14 days after PPI (Table 34)): 60%
% Inhibition GIFT ([3]; in vivo): 45% and 65% and 75% and 50% and 55% and 70% and 90%
% Inhibition GIFT [4, 16]: 0%
% Inhibition GIFT [4, 17]: 0%
% Inhibition GIFT [4, 18]: 0%
% Inhibition GIFT ([4]; Herbicide No. 6 0.01 Kg/Ha POE): 50%
% Inhibition GIFT [4, 19]: 85%
% Inhibition GIFT [4, 20]: 10%
% Inhibition GIFT [4, 21]: 0%
% Inhibition GIFT [4, 22]: 0%
% Inhibition GIFT [4, 23]: 20%
% Inhibition GIFT [4, 24]: 60%
% Inhibition GIFT [4, 25]: 35%
% Inhibition GIFT [4, 26]: 25%
% Inhibition GIFT [4, 27]: 25%
% Inhibition COTT ([5]; Table 64, Herb. No. 1 0.018 Kg/Ha + Biocide No. 1 8.96 Kg/Ha + Antidote 4.48 Kg/Ha): 10%
% Inhibition COTT ([5]; Table 64, Herb. No. 1 0.07 Kg/Ha + Biocide No. 1 8.96 Kg/Ha + Antidote 4.48 Kg/Ha): 40%
% Inhibition COTT ([5]; Table 64, Herb. No. 1 0.28 Kg/Ha + Biocide No. 1 8.96 Kg/Ha + Antidote 4.48 Kg/Ha): 40%
% Inhibition COTT ([5]; Table 65, Herb. No. 1 0.018 Kg/Ha + Biocide No. 1 8.96 Kg/Ha + Antidote 4.48 Kg/Ha): 15%
% Inhibition COTT ([5]; Table 65, Herb. No. 1 0.07 Kg/Ha + Biocide No. 1 8.96 Kg/Ha + Antidote 4.48 Kg/Ha): 10%
% Inhibition COTT ([5]; Table 65, Herb. No. 1 0.28 Kg/Ha + Biocide No. 1 8.96 Kg/Ha + Antidote 4.48 Kg/Ha): 35%

N#CCOc1ccc(Cl)c2cccnc12 [compound 33]
% Inhibition 5 DAP SHCA [1, 6]: 20%
% Inhibition 13 DAP SHCA [1, 7]: 90%
% Inhibition SHCA [1, 8]: 70%
% Inhibition SHCA [1, 10]: 75%
% Inhibition SHCA [1, 11]: 90%
% Inhibition SHCA [1, 14]: 55%
% Inhibition 5 DAP SHCA ([1]; in vivo): 70%
% Inhibition 13 DAP SHCA ([1]; in vivo): 90%
% Inhibition 5 DAP VELE [2, 6]: 50%
% Inhibition 13 DAP VELE [2, 7]: 95%
% Inhibition VELE [2, 8]: 70%
% Inhibition 5 DAP VELE [2, 15]: 30%
% Inhibition VELE [2, 10]: 75%
% Inhibition VELE [2, 11]: 70%
% Inhibition VELE [2, 14]: 85%
% Inhibition 5 DAP VELE ([2]; in vivo): 60%
% Inhibition 13 DAP VELE ([2]; in vivo): 90%
% Inhibition GIFT [4, 16]: 0%
% Inhibition GIFT [4, 17]: 0%
% Inhibition GIFT [4, 18]: 0%
% Inhibition GIFT ([4]; Herbicide No. 6 0.01 Kg/Ha POE): 65%
% Inhibition GIFT [4, 19]: 80%
% Inhibition GIFT [4, 20]: 25%
% Inhibition GIFT [4, 21]: 0%
% Inhibition GIFT [4, 22]: 0%
% Inhibition GIFT [4, 23]: 30%
% Inhibition GIFT [4, 24]: 65%
% Inhibition GIFT [4, 25]: 35%
% Inhibition GIFT [4, 26]: 30%
% Inhibition GIFT [4, 27]: 25%

COC(=O)c1c(Cl)nn(C)c1S(=O)(=O)NC(=O)Nc1nc(OC)cc(OC)n1 [Herbicide No. 1, N-[(4,6-dimethoxypyrimidin-2-yl)aminocarbonyl]-3-chloro-4-methoxycarbonyl-5-sulfonamide, reference compound]
% Inhibition GIFT ([3]; Herbicide No. 1 0.0175 Kg/Ha PPI alone, Table 19): 15%
% Inhibition GIFT ([3]; Herbicide No. 1 0.0175 Kg/Ha PPI alone, Table 20): 0%
% Inhibition GIFT ([3]; Herbicide No. 1 0.0175 Kg/Ha PPI alone, Table 21): 0%
% Inhibition GIFT ([3]; Herbicide No. 1 0.0175 Kg/Ha PPI alone, Table 22): 0%
inhibition at 140 g/ha ([3]; Herb. No. 1 0.14 kg/Ha alone, PPI, 13 days after planting): 30%
inhibition at 140 g/ha ([3]; Table 51, Herbicide No. 1 0.14 Kg/Ha, where applied Biocide No. 8 8.96 kg/Ha and antidote 4.48 Kg/Ha, all PPI, observed 13 days after treatment): 60%
% Inhibition GIFT ([3]; in vivo): 60% and 65% and 80%
inhibition ([5]; Table 64, Herb. No. 1 0.018 Kg/Ha + Biocide No. 1 8.96 Kg/Ha): 15%
inhibition at 18 g/ha ([5]; Table 64): 10%
inhibition ([5]; Table 64, Herb. No. 1 0.07 Kg/Ha + Biocide No. 1 8.96 Kg/Ha): 0%
inhibition at 70 g/ha ([5]; Table 64): 20%
inhibition ([5]; Table 64, Herb. No. 1 0.28 Kg/Ha + Biocide No. 1 8.96 Kg/Ha): 55%
inhibition at 280 g/ha ([5]; Table 64): 60%
inhibition ([5]; Table 65, Herb. No. 1 0.018 Kg/Ha + Biocide No. 1 8.96 Kg/Ha): 0%
inhibition at 18 g/ha ([5]; Table 65): 0%
inhibition ([5]; Table 65, Herb. No. 1 0.07 Kg/Ha + Biocide No. 1 8.96 Kg/Ha): 20%
inhibition at 70 g/ha ([5]; Table 65): 20%
inhibition ([5]; Table 65, Herb. No. 1 0.28 Kg/Ha + Biocide No. 1 8.96 Kg/Ha): 75%
inhibition at 280 g/ha ([5]; Table 65): 40%
